In ChEMBL document CHEMBL5291721, “A preclinical secondary pharmacology resource illuminates target-adverse drug reaction associations of marketed drugs” (Nat Commun, 2023):

How the values were obtained:
Androgen receptor = molecular target: T1, Androgen receptor (Rattus norvegicus, UniProt P15207); assay type: functional
T1 sequence (P15207 whole entry): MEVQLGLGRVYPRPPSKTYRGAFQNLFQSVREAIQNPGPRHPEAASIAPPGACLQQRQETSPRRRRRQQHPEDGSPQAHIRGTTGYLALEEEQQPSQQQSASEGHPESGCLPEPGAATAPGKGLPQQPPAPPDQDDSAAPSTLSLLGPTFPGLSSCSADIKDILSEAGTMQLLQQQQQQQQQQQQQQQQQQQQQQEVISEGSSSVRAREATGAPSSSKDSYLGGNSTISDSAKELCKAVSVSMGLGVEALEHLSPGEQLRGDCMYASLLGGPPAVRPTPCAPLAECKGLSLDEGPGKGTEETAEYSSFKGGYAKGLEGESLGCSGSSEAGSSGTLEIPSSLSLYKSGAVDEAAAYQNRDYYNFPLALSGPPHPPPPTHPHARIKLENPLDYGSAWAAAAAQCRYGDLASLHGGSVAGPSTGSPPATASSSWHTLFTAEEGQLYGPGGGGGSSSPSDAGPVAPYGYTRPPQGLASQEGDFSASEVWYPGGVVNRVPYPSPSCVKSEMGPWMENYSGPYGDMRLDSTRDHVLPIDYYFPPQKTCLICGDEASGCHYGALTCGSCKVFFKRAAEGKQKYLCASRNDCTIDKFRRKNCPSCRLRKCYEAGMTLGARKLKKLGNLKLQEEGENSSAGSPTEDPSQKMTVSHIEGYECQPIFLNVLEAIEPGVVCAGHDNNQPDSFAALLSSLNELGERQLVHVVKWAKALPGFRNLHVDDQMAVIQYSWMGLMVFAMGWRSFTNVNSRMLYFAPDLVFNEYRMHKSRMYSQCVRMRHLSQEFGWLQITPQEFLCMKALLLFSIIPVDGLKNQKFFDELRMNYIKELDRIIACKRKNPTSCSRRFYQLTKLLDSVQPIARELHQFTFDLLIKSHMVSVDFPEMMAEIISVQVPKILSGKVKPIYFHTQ

Histamine H1 receptor [1] = molecular target: T2, Histamine H1 receptor (Homo sapiens, UniProt P35367); assay type: functional, cell-based
Histamine H1 receptor [2] = molecular target: T2, Histamine H1 receptor; assay type: functional, cell-based; remark: listed apart in the source
[3] = molecular target: 5-hydroxytryptamine receptor 2B (Homo sapiens, UniProt P41595)
[4] = molecular target: T3, Muscarinic acetylcholine receptor M4 (Homo sapiens, UniProt P08173)
T3 sequence (P08173 whole entry): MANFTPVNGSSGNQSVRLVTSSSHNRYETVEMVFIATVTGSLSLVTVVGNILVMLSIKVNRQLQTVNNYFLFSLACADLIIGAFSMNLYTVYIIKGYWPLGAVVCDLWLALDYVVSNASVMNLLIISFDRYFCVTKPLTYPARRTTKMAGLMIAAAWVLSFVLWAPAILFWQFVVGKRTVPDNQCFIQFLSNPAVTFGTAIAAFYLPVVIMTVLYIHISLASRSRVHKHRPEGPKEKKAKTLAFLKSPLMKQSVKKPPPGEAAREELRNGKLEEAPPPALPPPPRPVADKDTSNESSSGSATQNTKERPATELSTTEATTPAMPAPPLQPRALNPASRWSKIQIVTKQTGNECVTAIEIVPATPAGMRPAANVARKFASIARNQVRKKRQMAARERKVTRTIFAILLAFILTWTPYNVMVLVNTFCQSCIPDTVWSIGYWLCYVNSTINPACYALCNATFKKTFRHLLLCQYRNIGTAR

D(4) dopamine receptor = molecular target: T4, D(4) dopamine receptor (Homo sapiens, UniProt P21917)
T4 sequence (P21917 whole entry): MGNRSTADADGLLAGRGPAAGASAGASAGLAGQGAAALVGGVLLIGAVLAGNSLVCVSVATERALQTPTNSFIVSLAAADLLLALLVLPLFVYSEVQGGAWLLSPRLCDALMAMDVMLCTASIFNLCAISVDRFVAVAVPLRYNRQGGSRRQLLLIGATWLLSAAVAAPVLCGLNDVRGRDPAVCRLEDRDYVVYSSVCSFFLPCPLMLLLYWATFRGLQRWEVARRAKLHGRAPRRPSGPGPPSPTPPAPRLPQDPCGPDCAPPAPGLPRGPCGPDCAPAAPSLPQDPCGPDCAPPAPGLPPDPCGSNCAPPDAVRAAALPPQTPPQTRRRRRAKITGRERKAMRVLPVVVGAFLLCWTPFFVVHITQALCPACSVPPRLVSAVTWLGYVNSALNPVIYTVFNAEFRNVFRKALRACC

[5] = molecular target: Rod cGMP-specific 3',5'-cyclic phosphodiesterase subunit alpha (Homo sapiens, UniProt P16499); assay type: functional
Substance-P receptor = Substance-P receptor (Homo sapiens, UniProt P25103)
Substance-K receptor = molecular target: T5, Substance-K receptor (Homo sapiens, UniProt P21452)
T5 sequence (P21452 whole entry): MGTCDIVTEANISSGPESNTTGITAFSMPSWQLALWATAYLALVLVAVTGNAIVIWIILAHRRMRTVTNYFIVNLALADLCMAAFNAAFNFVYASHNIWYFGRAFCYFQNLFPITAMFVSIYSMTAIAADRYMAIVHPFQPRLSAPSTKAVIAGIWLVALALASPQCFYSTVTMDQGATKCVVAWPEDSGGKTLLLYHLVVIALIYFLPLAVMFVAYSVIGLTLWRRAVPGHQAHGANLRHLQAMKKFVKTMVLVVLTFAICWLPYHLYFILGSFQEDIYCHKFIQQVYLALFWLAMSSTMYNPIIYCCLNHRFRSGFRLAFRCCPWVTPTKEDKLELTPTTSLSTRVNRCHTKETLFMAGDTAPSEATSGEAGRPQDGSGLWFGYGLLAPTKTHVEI

[6] = molecular target: T6, Alpha-1A adrenergic receptor (Homo sapiens, UniProt P35348)
T6 sequence (P35348 whole entry): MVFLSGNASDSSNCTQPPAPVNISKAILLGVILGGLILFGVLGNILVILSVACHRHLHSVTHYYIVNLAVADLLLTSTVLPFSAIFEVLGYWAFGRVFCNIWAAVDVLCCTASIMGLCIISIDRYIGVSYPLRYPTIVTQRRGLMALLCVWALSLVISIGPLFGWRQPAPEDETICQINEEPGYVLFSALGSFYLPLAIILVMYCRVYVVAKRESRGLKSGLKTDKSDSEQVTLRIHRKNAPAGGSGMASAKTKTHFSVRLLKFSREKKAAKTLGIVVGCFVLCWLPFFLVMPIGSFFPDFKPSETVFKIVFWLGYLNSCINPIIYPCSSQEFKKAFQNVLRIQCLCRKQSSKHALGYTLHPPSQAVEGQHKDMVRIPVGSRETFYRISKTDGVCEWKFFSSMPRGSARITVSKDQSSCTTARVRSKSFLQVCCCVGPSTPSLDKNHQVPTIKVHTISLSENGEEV
Further: assay procedure not described here.

Chain of Substance-P receptor (P25103 whole entry): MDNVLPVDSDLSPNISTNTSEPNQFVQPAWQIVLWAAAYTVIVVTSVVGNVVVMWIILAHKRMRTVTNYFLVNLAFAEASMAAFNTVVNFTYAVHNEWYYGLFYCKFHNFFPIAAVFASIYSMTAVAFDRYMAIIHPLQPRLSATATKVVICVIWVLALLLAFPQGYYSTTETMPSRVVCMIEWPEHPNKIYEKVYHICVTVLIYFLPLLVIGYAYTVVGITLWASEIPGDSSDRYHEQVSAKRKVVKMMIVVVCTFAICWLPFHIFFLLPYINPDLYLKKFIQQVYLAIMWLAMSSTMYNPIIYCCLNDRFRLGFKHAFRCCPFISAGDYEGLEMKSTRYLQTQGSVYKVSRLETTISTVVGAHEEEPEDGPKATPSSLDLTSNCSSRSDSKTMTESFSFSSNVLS
Chain of 5-hydroxytryptamine receptor 2B (P41595 whole entry): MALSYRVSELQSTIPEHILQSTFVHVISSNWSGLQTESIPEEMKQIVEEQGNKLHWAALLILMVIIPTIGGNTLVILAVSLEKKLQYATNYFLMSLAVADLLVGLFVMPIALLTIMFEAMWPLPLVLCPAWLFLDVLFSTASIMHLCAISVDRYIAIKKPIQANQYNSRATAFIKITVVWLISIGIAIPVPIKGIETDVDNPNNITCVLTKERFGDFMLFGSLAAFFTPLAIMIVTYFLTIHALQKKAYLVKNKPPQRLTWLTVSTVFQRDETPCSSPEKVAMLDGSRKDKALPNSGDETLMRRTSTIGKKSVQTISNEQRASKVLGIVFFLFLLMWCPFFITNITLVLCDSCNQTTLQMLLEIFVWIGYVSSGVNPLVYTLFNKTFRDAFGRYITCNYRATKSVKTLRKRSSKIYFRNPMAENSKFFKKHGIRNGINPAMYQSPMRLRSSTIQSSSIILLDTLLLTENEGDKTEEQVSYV
T2 sequence (P35367 whole entry): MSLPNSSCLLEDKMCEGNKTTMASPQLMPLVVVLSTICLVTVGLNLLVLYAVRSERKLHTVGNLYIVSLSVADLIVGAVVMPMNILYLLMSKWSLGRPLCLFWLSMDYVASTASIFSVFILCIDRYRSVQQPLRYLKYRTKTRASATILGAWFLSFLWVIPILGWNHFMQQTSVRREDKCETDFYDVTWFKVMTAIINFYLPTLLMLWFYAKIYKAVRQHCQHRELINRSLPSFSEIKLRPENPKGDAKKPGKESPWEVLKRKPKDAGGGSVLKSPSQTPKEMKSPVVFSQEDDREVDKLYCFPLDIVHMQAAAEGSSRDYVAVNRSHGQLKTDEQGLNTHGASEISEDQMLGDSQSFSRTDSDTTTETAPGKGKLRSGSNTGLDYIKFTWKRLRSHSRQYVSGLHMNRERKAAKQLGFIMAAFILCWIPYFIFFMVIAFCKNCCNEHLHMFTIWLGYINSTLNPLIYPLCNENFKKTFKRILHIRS
Chain of Rod cGMP-specific 3',5'-cyclic phosphodiesterase subunit alpha (P16499 whole entry): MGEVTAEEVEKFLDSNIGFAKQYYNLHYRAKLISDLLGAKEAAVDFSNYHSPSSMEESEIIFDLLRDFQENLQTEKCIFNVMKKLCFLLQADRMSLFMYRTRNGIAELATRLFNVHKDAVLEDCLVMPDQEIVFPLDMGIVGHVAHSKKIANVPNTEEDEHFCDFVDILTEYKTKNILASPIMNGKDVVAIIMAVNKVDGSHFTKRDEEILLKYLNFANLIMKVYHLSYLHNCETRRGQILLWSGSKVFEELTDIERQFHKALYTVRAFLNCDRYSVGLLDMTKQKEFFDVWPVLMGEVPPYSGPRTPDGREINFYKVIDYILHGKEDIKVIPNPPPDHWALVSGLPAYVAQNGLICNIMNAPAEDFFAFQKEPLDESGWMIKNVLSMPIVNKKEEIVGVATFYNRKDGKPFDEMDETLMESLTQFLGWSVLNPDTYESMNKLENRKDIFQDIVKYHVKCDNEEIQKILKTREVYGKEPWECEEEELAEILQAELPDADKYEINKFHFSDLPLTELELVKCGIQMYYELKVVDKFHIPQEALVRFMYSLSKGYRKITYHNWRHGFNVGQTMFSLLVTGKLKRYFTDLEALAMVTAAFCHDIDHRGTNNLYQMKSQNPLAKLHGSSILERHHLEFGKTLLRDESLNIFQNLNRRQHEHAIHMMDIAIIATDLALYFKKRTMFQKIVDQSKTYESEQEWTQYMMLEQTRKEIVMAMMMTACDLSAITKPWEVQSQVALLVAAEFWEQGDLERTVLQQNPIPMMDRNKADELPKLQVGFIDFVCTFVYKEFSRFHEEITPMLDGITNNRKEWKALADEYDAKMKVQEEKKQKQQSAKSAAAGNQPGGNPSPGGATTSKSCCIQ

Q: CCCC(=O)N1CCCN(c2nc(N)c3cc(OC)c(OC)cc3n2)CC1 [BUNAZOSIN] was tested. Which AC50 (Androgen receptor) did it give?
A: > 30 µM

Q: What about the AC50 (Histamine H1 receptor [1]) of the same compound?
A: > 30 µM

Q: What about the AC50 (Histamine H1 receptor [2]) of the same compound?
A: > 30 µM

Q: For CC(C)(N)Cc1ccc(Cl)cc1 [CHLORPHENTERMINE], which AC50 [3] is on record?
A: 3 µM

Q: O=C(Nc1ccccc1)OCC(CN1CCCCC1)OC(=O)Nc1ccccc1 (centres undefined) [DIPERODON] was tested. Which AC50 [4] did it give?
A: > 10 µM

Q: And the AC50 (D(4) dopamine receptor)?
A: 5.2 µM

Q: And the AC50 [3]?
A: 1.96 µM

Q: What about the AC50 [5] of the same compound?
A: > 10 µM

Q: And the AC50 (Substance-P receptor)?
A: > 10 µM

Q: What about the AC50 (Substance-K receptor) of the same compound?
A: > 10 µM

Q: And the AC50 [6]?
A: > 10 µM

Q: With C=C1C[C@@H]2[C@H](CC[C@]3(C)C(=O)CC[C@@H]23)[C@@]2(C)C=CC(=O)C=C12 [EXEMESTANE] as the compound, how does the AC50 (Histamine H1 receptor [1]) read?
A: > 30 µM

Q: And the AC50 (Histamine H1 receptor [2])?
A: > 30 µM

Q: For CS(=O)(=O)Nc1cc2occ(NC=O)c(=O)c2cc1Oc1ccccc1 [IGURATIMOD], which AC50 (Androgen receptor) is on record?
A: > 30 µM

Q: How did the AC50 [4] turn out when CN(C)CCCN1c2ccccc2Sc2ccccc21 [PROMAZINE] was run?
A: 1.44 µM

Q: And the AC50 (D(4) dopamine receptor)?
A: 0.551 µM

Q: And the AC50 [3]?
A: 0.192 µM

Q: And the AC50 [5]?
A: > 10 µM

Q: What about the AC50 (Substance-P receptor) of the same compound?
A: > 10 µM

Q: What about the AC50 (Substance-K receptor) of the same compound?
A: > 10 µM

Q: What about the AC50 [6] of the same compound?
A: 0.0138 µM

Q: Which results are given for O=P(O)(O)C(O)(Cc1cccnc1)P(=O)(O)O [RISEDRONIC ACID]?
A: AC50 (D(4) dopamine receptor): > 10 µM; AC50 [3]: > 10 µM; AC50 (Substance-P receptor): > 10 µM; AC50 [6]: > 10 µM

Q: For O=C1CCC(N2C(=O)c3ccccc3C2=O)C(=O)N1 (centres undefined) [THALIDOMIDE], which AC50 (D(4) dopamine receptor) is on record?
A: > 10 µM

Q: What about the AC50 [3] of the same compound?
A: > 10 µM

Q: What about the AC50 (Substance-P receptor) of the same compound?
A: > 10 µM

Q: What about the AC50 [6] of the same compound?
A: > 10 µM
